Measured values published in patent publication US20140116434A1, “Dry Powder Inhaler Compositions” (GLAXO GROUP LIMITED, priority 2011, published 2014).
Blank lines part the entries; values can stand above or below the compound they belong to.

What was measured:
subjects with COPD [1] = assay: 28 day once-daily dry powder inhaler study in subjects with COPD; type: in vivo, human; conditions: 125, 250 and 500 mcg once-daily, 28 day period
Source text: A further study evaluated the efficacy and safety of three doses (125 mcg, 250 mcg and 500 mcg) of 4-[hydroxy(diphenyl)methyl]-1-{2-[(phenylmethyl)oxy]ethyl}-1-azoniabicyclo[2.2.2]octane bromide administered once-daily via a dry powder inhaler over a 28 day period in subjects with COPD.

pre-clinical models = assay: duration of action in vivo, administered directly to the lungs in pre-clinical models; set-up: species or system animals
muscarinic receptor = muscarinic receptor antagonism, studies in animal models and in humans
[2] = test system: healthy volunteers and COPD patients; assay: clinical pharmacology studies, single inhaled doses, plethysmography (sGaw, Raw) and spirometry (FEV1); type: in vivo, human
Procedure: Several clinical pharmacology studies have been conducted using 4-[hydroxy(diphenyl)methyl]-1-{2-[(phenylmethyl)oxy]ethyl}-1-azoniabicyclo[2.2.2]octane bromide in both healthy volunteers and COPD patients to investigate the safety, tolerability, pharmacokinetics and pharmacodynamics of this compound. The bronchodilatory effects and duration of action of single inhaled doses of this compound as measured by plethysmography (sGaw, Raw) and spirometry (FEV1) were assessed in some of the above noted studies.

[3] = test system: healthy Japanese volunteers; assay: single inhaled dose four-way crossover study, monotherapies and combination; type: in vivo, human; conditions: single inhaled doses, 500 mcg and/or 50 mcg
Source text: A combination of 4-[hydroxy(diphenyl)methyl]-1-{2-[(phenylmethyl)oxy]ethyl}-1-azoniabicyclo[2.2.2]octane bromide and the compound of formula (II) as the triphenylacetate salt has been administered to sixteen healthy Japanese volunteers, aged 20 to 65, as part of a clinical trial to assess the safety, tolerability, pharmacokinetics and pharmacodynamics of single inhaled doses of 4-[hydroxy(diphenyl)methyl]-1-{2-[(phenylmethyl)oxy]ethyl}-1-azoniabicyclo[2.2.2]octane bromide and the compound of formula (II) triphenylacetate as monotherapies and in combination. […]
This clinical study in healthy Japanese volunteers, evaluated the effect of 4-[hydroxy(diphenyl)methyl]-1-{2-[(phenylmethyl)oxy]ethyl}-1-azoniabicyclo[2.2.2]octane bromide (500 mcg dose) and the compound of formula (II) triphenylacetate (50 mcg dose) administered as single inhaled doses and concurrently (4-[hydroxy(diphenyl)methyl]-1-{2-[(phenylmethyl)oxy]ethyl}-1-azoniabicyclo[2.2.2]octane bromide (500 mcg dose) and the compound of formula (II) triphenylacetate (50 mcg dose)) on lung function parameters. […] In this study FEV1 values were recorded. […]

subjects with COPD [4] = assay: 14-day once-daily study in subjects with COPD; type: in vivo, human; conditions: 14-day treatment period
Source text: In addition, this study confirmed that 4-[hydroxy(diphenyl)methyl]-1-{2-[(phenylmethyl)oxy]ethyl}-1-azoniabicyclo[2.2.2]octane bromide has a once-daily profile.

human M3 receptor = human M3 receptor (Homo sapiens, UniProt P20309); assay: reversibility at the human M3 receptor in vitro; type: binding
[5] = type: in vivo, animal and human
asthmatic patients = assay: clinical pharmacology studies of the compound of formula (II) in asthmatic patients; type: in vivo, human; conditions: all doses tested
Source text: The compound of formula (II) as the α-phenylcinnamate salt and the triphenylacetate salt has been studied in a number of clinical pharmacology studies, including single- and repeat-dose studies. In addition, these studies have evaluated the compound of formula (II) formulated with lactose and either cellobiose octaacetate or magnesium stearate.

[6] = test system: subjects with persistent uncontrolled asthma; assay: 8 week randomised, double-blind, placebo-controlled study in persistent uncontrolled asthma; type: in vivo, human
Procedure: In one such study, the safety and efficacy of four doses of 6α,9α-difluoro-17α-[(2-furanylcarbonyl)oxy]-11β-hydroxy-16α-methyl-3-oxo-androsta-1,4-diene-17β-carbothioic acid S-fluoromethyl ester (fluticasone furoate) in subjects with persistent uncontrolled asthma were evaluated. In this study, which was a randomised, double-blind, placebo-controlled, parallel group study, 598 patients received one of six treatments: fluticasone furoate (25, 50, 100 or 200 mcg) once daily, fluticasone propionate 100 mcg twice daily or placebo for 8 weeks. The primary endpoint was change from baseline in trough (pre-dose) forced expiratory volume in 1 second (FEV1) at Week 8. […] This study supports the use of fluticasone furoate (100 or 200 mcg once-daily) for the treatment of persistant uncontrolled asthma.

Sequence of human M3 receptor (P20309 whole entry): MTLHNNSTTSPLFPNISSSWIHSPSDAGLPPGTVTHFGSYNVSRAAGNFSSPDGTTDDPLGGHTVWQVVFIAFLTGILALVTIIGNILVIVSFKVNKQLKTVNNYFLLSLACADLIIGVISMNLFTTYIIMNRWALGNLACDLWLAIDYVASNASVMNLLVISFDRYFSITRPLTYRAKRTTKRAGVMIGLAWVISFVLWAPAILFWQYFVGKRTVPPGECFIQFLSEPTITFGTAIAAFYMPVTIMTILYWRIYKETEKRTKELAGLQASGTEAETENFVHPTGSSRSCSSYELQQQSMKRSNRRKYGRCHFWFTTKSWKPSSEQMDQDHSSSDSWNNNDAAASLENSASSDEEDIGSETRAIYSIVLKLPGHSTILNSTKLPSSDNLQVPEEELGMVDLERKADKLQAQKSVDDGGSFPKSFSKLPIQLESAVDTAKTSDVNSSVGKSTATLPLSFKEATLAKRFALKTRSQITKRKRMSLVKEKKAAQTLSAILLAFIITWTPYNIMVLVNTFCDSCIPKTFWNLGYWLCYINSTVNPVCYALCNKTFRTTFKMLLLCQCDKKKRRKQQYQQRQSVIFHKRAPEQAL

- reversibility at the human M3 receptor (human M3 receptor): slow reversibility
SMILES: OC(c1ccccc1)(c1ccccc1)C12CC[N+](CCOCc3ccccc3)(CC1)CC2.[Br-] [4-[hydroxy(diphenyl)methyl]-1-{2-[(phenylmethyl)oxy]ethyl}-1-azoniabicyclo[2.2.2]octane bromide]
- bronchodilation (subjects with COPD [1]): significant bronchodilation over twenty four hours
- safety (subjects with COPD [1]): safe
- duration of action in vivo (pre-clinical models): long duration of action
- muscarinic receptor antagonist profile (muscarinic receptor): long acting high-affinity pan-active muscarinic receptor antagonist
- bronchodilatory effects (sGaw, Raw, FEV1) [2]: clinically relevant bronchodilation
- duration of action [2]: 24 h
- tolerability ([3]; dry powder inhalers): well tolerated
- FEV1 values compared with placebo [3]: higher
- pulmonary function compared to placebo (subjects with COPD [4]; 62.5, 125, 250, 500 and 1000 mcg once-daily): statistically significant improvements
- trough FEV1 compared with open label tiotropium active control (18 mcg once-daily) (subjects with COPD [4]; all once-daily doses): numerically greater improvement

SMILES: OCc1cc([C@@H](O)CNCCCCCCOCCOCc2c(Cl)cccc2Cl)ccc1O [compound of formula (II), 4-{(1R)-2-[(6-{2-[(2,6-dichlorobenzyl)oxy]ethoxy}hexyl)amino]-1-hydroxyethyl}-2-(hydroxymethyl)phenol]
- bronchodilation ([5]; animal and human studies): sustained bronchodilation over a 24 hour period
- safety profile ([5]; in vivo): favourable safety profile
- trough (24-hour) FEV1 compared to placebo (asthmatic patients): statistically and clinically significant improvement

SMILES: C[C@@H]1C[C@H]2[C@@H]3C[C@H](F)C4=CC(=O)C=C[C@]4(C)[C@@]3(F)[C@@H](O)C[C@]2(C)[C@@]1(OC(=O)c1ccco1)C(=O)SCF [fluticasone furoate, 6α,9α-difluoro-17α-[(2-furanylcarbonyl)oxy]-11β-hydroxy-16α-methyl-3-oxo-androsta-1,4-diene-17β-carbothioic acid S-fluoromethyl ester]
- change from baseline in trough FEV1 relative to placebo ([6]; 50-200 mcg once daily, Week 8, p<0.05): significantly greater increases
- increase in trough FEV1 from baseline relative to placebo ([6]; 100 mcg and 200 mcg once daily, Week 8): > 200 mL
